US10513521B2, “Compositions and methods for inhibiting BMP” (The Brigham and Women's Hospital, Inc., priority 2014, dated 2019)
Positions count from the first letter of the chain named.

Columns and labels:
ALK3 = ALK3 (Homo sapiens, UniProt P36894); assay: TR-FRET enzymatic ALK kinase assay, ALK3
Method: (§1) Briefly, the ALKs enzymatic assay was initiated by dispense 2.5 μl enzyme in 1× kinase reaction buffer. The assay plate was then added with compounds followed by incubation at room temperature for 10 minutes. Then 2.5 μl/well substrate was added.

ALK2 [1] = target: T1, ALK2 (Homo sapiens, UniProt Q04771); assay: TR-FRET enzymatic ALK kinase assay, ALK2
T1 sequence (Q04771 21-509): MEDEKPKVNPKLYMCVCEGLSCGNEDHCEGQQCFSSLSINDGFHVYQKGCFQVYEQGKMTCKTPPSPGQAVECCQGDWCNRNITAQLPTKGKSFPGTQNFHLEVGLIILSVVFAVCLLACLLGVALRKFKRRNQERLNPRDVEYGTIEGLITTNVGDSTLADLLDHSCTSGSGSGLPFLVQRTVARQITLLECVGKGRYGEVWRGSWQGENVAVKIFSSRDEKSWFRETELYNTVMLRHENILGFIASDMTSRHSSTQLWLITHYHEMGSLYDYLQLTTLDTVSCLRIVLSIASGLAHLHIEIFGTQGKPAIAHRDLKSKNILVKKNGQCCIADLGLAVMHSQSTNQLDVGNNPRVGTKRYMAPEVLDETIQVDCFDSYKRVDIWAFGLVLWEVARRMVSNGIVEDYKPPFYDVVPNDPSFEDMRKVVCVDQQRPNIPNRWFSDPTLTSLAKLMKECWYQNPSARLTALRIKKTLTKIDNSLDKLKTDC
Method: as §1

ALK4 = target: T2, ALK4 (Homo sapiens, UniProt P36896); assay: TR-FRET enzymatic ALK kinase assay, ALK4
T2 sequence (P36896 24-505): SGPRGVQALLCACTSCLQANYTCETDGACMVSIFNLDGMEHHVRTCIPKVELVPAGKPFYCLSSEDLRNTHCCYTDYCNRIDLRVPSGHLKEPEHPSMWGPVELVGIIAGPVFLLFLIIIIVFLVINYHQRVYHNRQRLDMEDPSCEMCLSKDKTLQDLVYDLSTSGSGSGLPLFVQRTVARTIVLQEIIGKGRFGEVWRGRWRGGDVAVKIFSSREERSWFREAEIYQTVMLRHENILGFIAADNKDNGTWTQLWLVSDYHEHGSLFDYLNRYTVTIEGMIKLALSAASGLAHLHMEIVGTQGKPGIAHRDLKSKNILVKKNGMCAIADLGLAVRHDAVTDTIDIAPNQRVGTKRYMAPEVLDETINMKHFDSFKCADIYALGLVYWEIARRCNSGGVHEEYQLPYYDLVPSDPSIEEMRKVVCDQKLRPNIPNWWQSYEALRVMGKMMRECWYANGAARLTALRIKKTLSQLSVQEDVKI
Method: as §1

ALK1 = ALK1 (Homo sapiens, UniProt P37023); assay: TR-FRET enzymatic ALK kinase assay, ALK1
Sequence of ALK1 (P37023 22-503): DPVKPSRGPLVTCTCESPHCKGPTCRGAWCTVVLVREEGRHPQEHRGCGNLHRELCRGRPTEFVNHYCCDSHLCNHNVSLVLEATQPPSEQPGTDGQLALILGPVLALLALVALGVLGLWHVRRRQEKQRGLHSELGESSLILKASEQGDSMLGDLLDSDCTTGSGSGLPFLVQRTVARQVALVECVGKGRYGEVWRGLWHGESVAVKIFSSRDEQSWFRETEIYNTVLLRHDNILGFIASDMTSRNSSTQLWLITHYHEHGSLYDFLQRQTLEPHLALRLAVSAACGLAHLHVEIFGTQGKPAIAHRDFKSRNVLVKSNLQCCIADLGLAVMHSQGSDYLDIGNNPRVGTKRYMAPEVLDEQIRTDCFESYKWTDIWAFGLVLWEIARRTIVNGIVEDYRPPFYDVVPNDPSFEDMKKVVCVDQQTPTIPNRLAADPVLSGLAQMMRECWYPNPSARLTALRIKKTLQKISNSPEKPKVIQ
Method: as §1

ALK5 = target: T3, ALK5 (Homo sapiens, UniProt P36897); assay: TR-FRET enzymatic ALK kinase assay, ALK5
T3 sequence (P36897 34-503): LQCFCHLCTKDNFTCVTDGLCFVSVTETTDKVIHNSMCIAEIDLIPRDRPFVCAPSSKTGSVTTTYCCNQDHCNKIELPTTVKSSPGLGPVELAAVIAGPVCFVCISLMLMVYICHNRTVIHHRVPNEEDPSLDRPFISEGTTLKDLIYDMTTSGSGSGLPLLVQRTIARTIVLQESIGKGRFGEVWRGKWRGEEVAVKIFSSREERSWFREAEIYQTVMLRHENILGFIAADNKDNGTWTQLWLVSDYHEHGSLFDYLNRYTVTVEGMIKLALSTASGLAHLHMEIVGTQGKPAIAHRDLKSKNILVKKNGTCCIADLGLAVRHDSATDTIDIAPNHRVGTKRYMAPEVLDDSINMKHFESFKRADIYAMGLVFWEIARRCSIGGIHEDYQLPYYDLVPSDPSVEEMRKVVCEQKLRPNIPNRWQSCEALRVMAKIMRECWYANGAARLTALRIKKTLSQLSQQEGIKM
Method: Six ALK kinase enzyme assays were developed for determination of compound activities on ALK1, ALK2, ALK3, ALK4, ALK5 and ALK6.
as §1

ALK2 [2] = target: T4, ALK2 (Mus musculus, UniProt P37172); assay: HTRF pSMAD1 cell-based ALK2 assay (C2C12 cells, BMP6 as agonist); conditions: cell-based assay, BMP6; read-out: Cell IC50 BMP6
T4 construct: The C2C12 cell line was selected for the measurement of ALK2 activity using BMP6 as the agonist; host or cells: C2C12
T4 sequence (P37172 21-509): T1 sequence (Q04771 21-509) with M1V, P10Q, L121I, D162E, P310S
Method: 2. HTRF Cell-Based ALK1 and ALK2 Assays in 384-Well Plate Format We have developed a cell based ALK1 kinase assay and a cell-based ALK2 assay. The BAOEC cell line was employed for the measurement of ALK1 activity using BMP9 as the agonist. The C2C12 cell line was selected for the measurement of ALK2 activity using BMP6 as the agonist. The kinase specificity was defined by the specific cell line and agonist. The kinase activity was determined by the status of SMD 1/5/8 phosphorylation stimulated by the agonist.
HyClone Fetal Bovine Serum was obtained from GE healthcare life sciences (Logan, Utah). BMP6 and BMP9 were purchased from R&D System. […] The compound plates and the white solid MB assay plates were purchased from Greiner Bio-one (Monroe, N.C.).
HTRF optimization experiments were performed in 384 well plate format. […] Pre-starved cells were then plated in 384 well plate in the starvation medium (containing in 0.1% FBS). After 4 hours, compounds were added to the assay plate and incubated for 30 minutes. The assay plate was then added with BMP6 for C2C12 cells or BMP9 for BAOEC cells and incubated for 30 minutes.
HTRF assay was performed to measure the status of SMAD 1 phosphorylation after stimulated with the agonist (Table 3). This HTRF phospho SMAD1 cell assay was developed and optimized for the homogenous detection of phospho SMAD 1 levels in cells. […] The plate was incubated at room temperature for overnight.

ALK6 = ALK6 (Homo sapiens, UniProt O00238); assay: TR-FRET enzymatic ALK kinase assay, ALK6
Sequence of ALK6 (O00238 14-502): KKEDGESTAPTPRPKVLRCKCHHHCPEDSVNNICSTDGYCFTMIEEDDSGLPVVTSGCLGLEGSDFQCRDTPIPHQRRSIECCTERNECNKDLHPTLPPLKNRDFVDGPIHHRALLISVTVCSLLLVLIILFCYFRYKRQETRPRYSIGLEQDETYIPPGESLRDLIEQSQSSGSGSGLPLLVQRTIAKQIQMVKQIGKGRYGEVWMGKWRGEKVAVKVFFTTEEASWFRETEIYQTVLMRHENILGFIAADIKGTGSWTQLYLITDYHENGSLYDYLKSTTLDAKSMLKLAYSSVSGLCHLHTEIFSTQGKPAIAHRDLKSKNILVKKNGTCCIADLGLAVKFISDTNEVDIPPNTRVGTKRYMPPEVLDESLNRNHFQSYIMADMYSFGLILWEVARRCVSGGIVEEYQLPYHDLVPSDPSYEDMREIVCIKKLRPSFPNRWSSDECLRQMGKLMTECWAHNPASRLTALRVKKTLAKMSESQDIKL
Method: as §1

Sequence of ALK3 (P36894 24-532): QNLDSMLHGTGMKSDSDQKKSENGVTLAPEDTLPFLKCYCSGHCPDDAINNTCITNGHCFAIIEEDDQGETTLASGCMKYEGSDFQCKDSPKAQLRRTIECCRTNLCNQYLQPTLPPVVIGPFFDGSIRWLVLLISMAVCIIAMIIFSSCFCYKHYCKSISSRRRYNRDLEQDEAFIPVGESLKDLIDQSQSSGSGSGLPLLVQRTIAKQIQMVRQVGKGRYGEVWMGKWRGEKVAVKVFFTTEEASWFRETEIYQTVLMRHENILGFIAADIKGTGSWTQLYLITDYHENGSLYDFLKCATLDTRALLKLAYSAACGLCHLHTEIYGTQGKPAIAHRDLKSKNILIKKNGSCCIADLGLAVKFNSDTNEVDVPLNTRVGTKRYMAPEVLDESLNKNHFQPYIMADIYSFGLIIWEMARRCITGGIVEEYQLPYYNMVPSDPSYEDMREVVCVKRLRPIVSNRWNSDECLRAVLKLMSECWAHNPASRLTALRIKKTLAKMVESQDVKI

SMILES	IC50 (ALK3) [nM]	IC50 (ALK2 [1]) [nM]	IC50 (ALK4) [nM]	IC50 (ALK1) [nM]	IC50 (ALK5) [nM]	IC50 (ALK2 [2]) [nM]	IC50 (ALK6) [nM]
CN(C)CCOc1ccc(-c2cnc3c(-c4ccc(S(N)(=O)=O)c5ccccc45)cnn3c2)cc1 [Compound 61, 4-(6-(4-(2-(dimethylamino)ethoxy)phenyl)pyrazolo[1,5-a]pyrimidin-3-yl)naphthalene-1-sulfonamide]	> 10000	110	> 10000	470	> 10000	2200	> 10000
CN1CCN(c2ccc(-c3cnc4c(-c5ccc(S(N)(=O)=O)c6ccccc56)cnn4c3)cc2)CC1 [Compound 62, 4-(6-(4-(4-methylpiperazin-1-yl)phenyl)pyrazolo[1,5-a]pyrimidin-3-yl)naphthalene-1-sulfonamide]	> 10000	74	> 10000	140	> 10000	3000	> 10000
NS(=O)(=O)c1ccc(-c2cnn3cc(-c4ccc(C5(O)CCNCC5)cc4)cnc23)c2ccccc12 [Compound 66, 4-(6-(4-(4-hydroxypiperidin-4-yl)phenyl)pyrazolo[1,5-a]pyrimidin-3-yl)naphthalene-1-sulfonamide]	> 10000	68	> 10000	180	> 10000	10000	> 10000
C[C@@H]1CNC[C@H](C)N1c1ccc(-c2cnc3c(-c4cccc(C(N)=O)c4)cnn3c2)cc1 [Compound 67, 3-(6-(4-((2R,6S)-2,6-dimethylpiperazin-1-yl)phenyl)pyrazolo[1,5-a]pyrimidin-3-yl)benzamide]	310	33	2600	83	8400	155	2100
CN(C)CCc1ccc(-c2cnc3c(-c4ccc(S(N)(=O)=O)c5ccccc45)cnn3c2)cc1 [Compound 68, 4-(6-(4-(2-(dimethylamino)ethyl)phenyl)pyrazolo[1,5-a]pyrimidin-3-yl)naphthalene-1-sulfonamide]	> 10000	200	> 10000	680	> 10000	950	> 10000
C[C@@H]1CNC[C@H](C)N1c1ccc(-c2cnc3c(-c4cccc(C#N)c4)cnn3c2)cc1 [Compound 69, 3-(6-(4-((2R,6S)-2,6-dimethylpiperazin-1-yl)phenyl)pyrazolo[1,5-a]pyrimidin-3-yl)benzonitrile]	> 10000	140	> 10000	930	> 10000	2250	> 10000
C[C@@H]1CNC[C@H](C)N1c1ccc(-c2cnc3c(-c4cccc(CCO)c4)cnn3c2)cc1 [Compound 70, 2-(3-(6-(4-((2R,6S)-2,6-dimethylpiperazin-1-yl)phenyl)pyrazolo[1,5-a]pyrimidin-3-yl)phenyl)ethanol]	2800	66	> 10000	280	> 10000	1200	> 10000
C[C@@H]1CNC[C@H](C)N1c1ccc(-c2cnc3c(-c4ccc(CS(N)(=O)=O)cc4)cnn3c2)cc1 [Compound 71, (4-(6-(4-((2R,6S)-2,6-dimethylpiperazin-1-yl)phenyl)pyrazolo[1,5-a]pyrimidin-3-yl)phenyl)methanesulfonamide]	> 10000	5100	> 10000	> 10000	> 10000	22000	> 10000
C[C@@H]1CNC[C@H](C)N1c1ccc(-c2cnc3c(-c4cccc(CS(N)(=O)=O)c4)cnn3c2)cc1 [Compound 73, (3-(6-(4-((2R,6S)-2,6-dimethylpiperazin-1-yl)phenyl)pyrazolo[1,5-a]pyrimidin-3-yl)phenyl)methanesulfonamide]	1400	37	6400	160	> 10000	750	> 10000
